Literature values, collected in publication PMC7904743, “WIDOCK: a reactive docking protocol for virtual screening of covalent inhibitors” (Journal of Computer-Aided Molecular Design, 2021).
Like-named read-outs stand apart in the source and are kept apart here.

Legend:
NUDT7 = conditions: protein labeling at 200 μM; experimental actives if % labeling higher than 50%; cited from earlier work
OTUB2 = conditions: experimental actives if % labeling higher than 50%; cited from earlier work
[1] = thiol reactivity, cited from earlier work
[2] = natural log of average rate constant k
[3] = natural logarithm of average rate constant

| SMILES | NUDT7 % labeling (NUDT7) [%] | OTUB2 % labeling (OTUB2) [%] | ln(avg k) [1, 2] | ln(avg k) [1, 3] |
| --- | --- | --- | --- | --- |
| CNC(=O)c1cccc(NC(=O)CCl)c1 [PCM-0102113, CNC(=O)c1cccc(NC(=O)CCl)c1] | 0 | 0 | -15.492 | -15.492 |
| CC(=O)Nc1ccc(NC(=O)CCl)cc1 [PCM-0102114, CC(=O)Nc1ccc(NC(=O)CCl)cc1] | 0 | 0 | -16.157 | -16.157 |
| Cc1cccc(NC(=O)CCl)c1 [PCM-0102116, Cc1cccc(NC(=O)CCl)c1] | 0 | 11 | -15.855 | -15.855 |
| CC(NC(=O)CCl)c1cc2ccccc2o1 (stereo not shown) [PCM-0102117, CC(NC(=O)CCl)c1cc2ccccc2o1] | 12 | 41 | -16.443 | -16.443 |
| O=C(CCl)NC12CC3CC(CC(C3)C1)C2 [PCM-0102118, O=C(CCl)NC12CC3CC(CC(C3)C1)C2] | 0 | 0 | -16.476 | -16.476 |
| Cc1ccc(NC(=O)NC(=O)CCl)cc1C [PCM-0102119, Cc1ccc(NC(=O)NC(=O)CCl)cc1C] | 9 | 0 | -16.034 | -16.034 |
| O=C(CCl)Nc1ccc(Cl)cc1 [PCM-0102120, O=C(CCl)Nc1ccc(Cl)cc1] | 18 | 23 | -15.805 | -15.805 |
| O=C(CCl)N1CCN(S(=O)(=O)c2ccc(Cl)s2)CC1 [PCM-0102121, O=C(CCl)N1CCN(S(=O)(=O)c2ccc(Cl)s2)CC1] | 15 | 0 | -15.220 | -15.220 |
| O=C(CCl)NC(=O)NCc1ccccc1 [PCM-0102122, O=C(CCl)NC(=O)NCc1ccccc1] | 0 | 0 | -16.001 | -16.001 |
| O=C(CCl)N1CCc2sccc2C1 [PCM-0102123, O=C(CCl)N1CCc2sccc2C1] | 14 | 39 | -15.106 | -15.106 |
| O=C(CCl)N1CCN(c2ccc(Cl)cc2[N+](=O)[O-])CC1 [PCM-0102125, O=C(CCl)N1CCN(c2ccc(Cl)cc2[N+](=O)[O-])CC1] | 29 | 0 | -15.501 | -15.501 |
| O=C(CCl)Nc1nc2ccc(Br)cc2s1 [PCM-0102126, O=C(CCl)Nc1nc2ccc(Br)cc2s1] | 100 | 12 | -16.235 | -16.235 |
| O=C(CCl)Nc1ccc(Cl)cc1C(=O)O [PCM-0102127, O=C(CCl)Nc1ccc(Cl)cc1C(=O)O] | 0 | 10 | -16.749 | -16.749 |
| CC(NC(=O)CCl)c1ccccc1 (stereo not shown) [PCM-0102128, CC(NC(=O)CCl)c1ccccc1] | 13 | 42 | -16.398 | -16.398 |
| CC(=O)N1CCc2cc(NC(=O)CCl)ccc21 [PCM-0102129, CC(=O)N1CCc2cc(NC(=O)CCl)ccc21] | 7 | 31 | -15.858 | -15.858 |
| Cc1c(Cl)cccc1NC(=O)CCl [PCM-0102130, Cc1c(Cl)cccc1NC(=O)CCl] | 0 | 0 | -15.962 | -15.962 |
| Cc1ccc(-n2nc(C)c(NC(=O)CCl)c2C)cc1 [PCM-0102131, Cc1ccc(-n2nc(C)c(NC(=O)CCl)c2C)cc1] | 0 | 0 | -16.325 | -16.325 |
| O=C(CCl)N1CCN(CC(=O)N2CCOCC2)CC1 [PCM-0102133, O=C(CCl)N1CCN(CC(=O)N2CCOCC2)CC1] | 0 | 15 | -15.992 | -15.992 |
| Cc1cc([N+](=O)[O-])ccc1NC(=O)CCl [PCM-0102134, Cc1cc([N+](=O)[O-])ccc1NC(=O)CCl] | 10 | 11 | -16.240 | -16.240 |
| O=C(CCl)NC1CCS(=O)(=O)C1 (stereo not shown) [PCM-0102138, O=C(CCl)NC1CCS(=O)(=O)C1] | 0 | 0 | -15.936 | -15.936 |
| O=C1CN(C(=O)CCl)C2(CCCCC2)C(=O)N1 [PCM-0102139, O=C1CN(C(=O)CCl)C2(CCCCC2)C(=O)N1] | 22 | 5 | -15.673 | -15.673 |
| COc1ccc(NC(=O)CCl)cn1 [PCM-0102140, COc1ccc(NC(=O)CCl)cn1] | 0 | 0 | -13.166 | -13.166 |

| SMILES | NUDT7 % labeling (NUDT7) [%] | OTUB2 % labeling (OTUB2) [%] | ln(avg k) [1, 2] | ln(avg k) [1, 3] |
| --- | --- | --- | --- | --- |
| CS(=O)(=O)c1ccccc1NC(=O)CCl [PCM-0102141, CS(=O)(=O)c1ccccc1NC(=O)CCl] | 0 | 0 | -16.264 | -16.264 |
| O=C(CCl)NNC(=O)c1cc2c(s1)CCCC2 [PCM-0102142, O=C(CCl)NNC(=O)c1cc2c(s1)CCCC2] | 9 | 100 | -16.868 | -16.868 |
| Cc1c(C#N)c(NC(=O)CCl)n(-c2cccc(F)c2)c1C [PCM-0102146, Cc1c(C#N)c(NC(=O)CCl)n(-c2cccc(F)c2)c1C] | 58 | 10 | -15.589 | -15.589 |
| N#CCc1ccc(NC(=O)CCl)cc1 [PCM-0102148, N#CCc1ccc(NC(=O)CCl)cc1] | 10 | 43 | -15.302 | -15.302 |
| O=C(CCl)NCc1ccccc1F [PCM-0102149, O=C(CCl)NCc1ccccc1F] | 0 | 62 | -16.082 | -16.082 |
| O=C(CCl)N1CCC(c2ccccc2)=N1 [PCM-0102150, O=C(CCl)N1CCC(c2ccccc2)=N1] | 0 | 0 | -14.898 | -14.898 |
| O=C(CCl)Nc1ccccc1Cl [PCM-0102152, O=C(CCl)Nc1ccccc1Cl] | 0 | 20 | -16.303 | -16.303 |
| O=C(CCl)NC(=O)OCc1ccccc1 [PCM-0102153, O=C(CCl)NC(=O)OCc1ccccc1] | 0 | 79 | -16.245 | -16.245 |
| O=C(CCl)Nc1cccc(I)c1 [PCM-0102154, O=C(CCl)Nc1cccc(I)c1] | 24 | 49 | -15.790 | -15.790 |
| O=C(CCl)N(CC(F)(F)F)c1ccc(Cl)cc1 [PCM-0102155, O=C(CCl)N(CC(F)(F)F)c1ccc(Cl)cc1] | 79 | 0 | -15.883 | -15.883 |
| COc1ccc(NC(=O)CCl)cc1 [PCM-0102156, COc1ccc(NC(=O)CCl)cc1] | 0 | 52 | -15.521 | -15.521 |
| CC(NC(=O)CCl)C1CC1 (stereo not shown) [PCM-0102157, CC(NC(=O)CCl)C1CC1] | 0 | 10 | -17.112 | -17.112 |
| O=C(CCl)Nc1ccccc1F [PCM-0102158, O=C(CCl)Nc1ccccc1F] | 0 | 51 | -16.146 | -16.146 |
| O=C(CCl)N1c2ccccc2NC(=O)C12CCCC2 [PCM-0102159, O=C(CCl)N1c2ccccc2NC(=O)C12CCCC2] | 18 | 0 | -14.824 | -14.824 |
| O=C(CCl)N1CCc2ccccc21 [PCM-0102160, O=C(CCl)N1CCc2ccccc21] | 0 | 0 | -15.869 | -15.869 |
| NS(=O)(=O)c1cccc(NC(=O)CCl)c1 [PCM-0102162, NS(=O)(=O)c1cccc(NC(=O)CCl)c1] | 0 | 58 | -15.171 | -15.171 |
| O=C(CCl)Nc1ccc(O)cc1 [PCM-0102163, O=C(CCl)Nc1ccc(O)cc1] | 0 | 16 | -15.989 | -15.989 |
| NC(=O)c1c(NC(=O)CCl)sc2c1CCC2 [PCM-0102164, NC(=O)c1c(NC(=O)CCl)sc2c1CCC2] | 28 | 0 | -15.581 | -15.581 |
| Cc1cc(S(N)(=O)=O)cc(NC(=O)CCl)c1C [PCM-0102165, Cc1cc(S(N)(=O)=O)cc(NC(=O)CCl)c1C] | 9 | 12 | -16.164 | -16.164 |
| CCc1nnc(NC(=O)CCl)s1 [PCM-0102166, CCc1nnc(NC(=O)CCl)s1] | 21 | 0 | -16.086 | -16.086 |
| Cc1ccc(-c2csc(NC(=O)CCl)n2)cc1 [PCM-0102168, Cc1ccc(-c2csc(NC(=O)CCl)n2)cc1] | 40 | 0 | -15.760 | -15.760 |
